pIC50: −log10 of the molar value. Like-named read-outs stand apart in the source and are kept apart here.
How the values were obtained:
LNCap cells = experiment: Cell viability assay, LNCap; type: cell-based; conditions: Homo sapiens, 144 h
Protocol: (§1) Cell viability assay: LNCap, 22Rv1, MCF7, MDAMB361, T47D, and IEC6 cells are seeded at a density of 500-2000 cells/well in 96 well plates, and a ‘T0’ (timepoint 0) was included along with the assay plate. The plates are then incubated at 37° C., 5% CO2 in a cell culture incubator overnight. On the next day, the ‘T0’ plate was assayed using CellTiterGlo (Promega, Inc) according to the manufacturer's instructions. The appropriate compounds are diluted in DMSO and added to the assay plate (final DMSO concentration of 0.1-0.2%) on the next day. The assay plates are incubated for 6 days at 37° C., 5% CO2. After the incubation period, the plates are assayed using CellTiterGlo (Promega, Inc) according to the manufacturer's instructions and luminescence was read on the EnVision plate reader. Inhibition of the tested compounds was determined by the following formula: Inhibition rate (%)=(1−(RLU compound−RLU day0)/(RLU control−RLU day0))*100%. GraphPadPrism was used to analyze the data and determine GI50/IC50 values.

T47D cells = experiment: Cell viability assay, T47D; type: cell-based; conditions: Homo sapiens, 144 h
Protocol: as §1

IEC6 cells = experiment: Cell viability assay, IEC6; type: cell-based; conditions: Rattus norvegicus; for pIC50: 144 h, IEC-6 cells, 6 days, CellTiterGlo, read-out: IEC-6 (IC50); for IC50: IEC-6, 144 h, read-out: IEC-6 (IC50, nM)
Protocol: as §1

[1] = molecular target: full-length androgen receptor (Homo sapiens (Human), UniProt P10275); experiment: AR antagonism assay; type: cell-based
Protocol: AR antagonism assay: To evaluate AR antagonist activity, test compound was added to the assay plate (top dose 10 μM, 3 fold serial dilution, 10 point dose response). HEK293 cells stably expressing the full-length androgen receptor were seeded at a density of 20,000 cells/well in the assay plate. The assay plate was then incubated at room temperature for 10 minutes and at 37° C., 5% CO2 for 20 minutes. Testosterone was added to the assay plate at 1 nM final concentration and the assay plate incubated at 37° C., 5% CO2 for 20 h. After the incubation period, Steady-glo was added to the assay plate and mixed at room temperature for 20 minutes on an orbital shaker, before reading out on the EnVision plate reader.

AR = AR (Homo sapiens (Human), UniProt P10275, T878A); experiment: AR binding assay
Protocol: AR binding assay: To assess AR binding, test compound (top dose 10 μM, 4 fold serial dilution, 8 point dose response) and control (progesterone) were transferred to the assay plate. Cytosol from LnCaP cells was added to the plate, followed by addition of radiolabeled ^3H-R1881 at a final concentration of 1 nM. The plate was sealed, and the reaction was incubated at 300 rpm at 4° C. for 24 hrs. Radioligand absorption buffer (10 mM Tris-HCl, pH 7.4; 1.5 mM EDTA; 1 mM DTT; 0.25% charcoal; 0.0025% dextran) was then added to the plate, mixed, and incubated at 4° C. for 15 minutes. The plate was then centrifuged at 3000 rpm for 30 minutes at 4° C. The supernatant was transferred to the scint-tube and Tri-carb was used for scintillation counting. The data was analyzed using GraphPadPrism v5.0 and binding IC50 was determined as the concentration where 50% inhibition of radioligand binding was observed.

22Rv1 cells = experiment: Cell viability assay, 22Rv1; type: cell-based; conditions: Homo sapiens
Protocol: as §1

[2] = LNCaP, read-out: LNCap (GI50, nM)
[3] = T47D, read-out: T47D (GI50, nM)
[4] = LNCap cells, 6 days, CellTiterGlo, read-out: LNCap (GI50)
[5] = cytosol from LnCaP cells, 3H-R1881 1 nM, 4° C. 24 hrs, read-out: AR binding
[6] = 144 h, 22RV1 cells, 6 days, CellTiterGlo, read-out: 22RV1 (GI50)

Chain of full-length androgen receptor (P10275 whole entry): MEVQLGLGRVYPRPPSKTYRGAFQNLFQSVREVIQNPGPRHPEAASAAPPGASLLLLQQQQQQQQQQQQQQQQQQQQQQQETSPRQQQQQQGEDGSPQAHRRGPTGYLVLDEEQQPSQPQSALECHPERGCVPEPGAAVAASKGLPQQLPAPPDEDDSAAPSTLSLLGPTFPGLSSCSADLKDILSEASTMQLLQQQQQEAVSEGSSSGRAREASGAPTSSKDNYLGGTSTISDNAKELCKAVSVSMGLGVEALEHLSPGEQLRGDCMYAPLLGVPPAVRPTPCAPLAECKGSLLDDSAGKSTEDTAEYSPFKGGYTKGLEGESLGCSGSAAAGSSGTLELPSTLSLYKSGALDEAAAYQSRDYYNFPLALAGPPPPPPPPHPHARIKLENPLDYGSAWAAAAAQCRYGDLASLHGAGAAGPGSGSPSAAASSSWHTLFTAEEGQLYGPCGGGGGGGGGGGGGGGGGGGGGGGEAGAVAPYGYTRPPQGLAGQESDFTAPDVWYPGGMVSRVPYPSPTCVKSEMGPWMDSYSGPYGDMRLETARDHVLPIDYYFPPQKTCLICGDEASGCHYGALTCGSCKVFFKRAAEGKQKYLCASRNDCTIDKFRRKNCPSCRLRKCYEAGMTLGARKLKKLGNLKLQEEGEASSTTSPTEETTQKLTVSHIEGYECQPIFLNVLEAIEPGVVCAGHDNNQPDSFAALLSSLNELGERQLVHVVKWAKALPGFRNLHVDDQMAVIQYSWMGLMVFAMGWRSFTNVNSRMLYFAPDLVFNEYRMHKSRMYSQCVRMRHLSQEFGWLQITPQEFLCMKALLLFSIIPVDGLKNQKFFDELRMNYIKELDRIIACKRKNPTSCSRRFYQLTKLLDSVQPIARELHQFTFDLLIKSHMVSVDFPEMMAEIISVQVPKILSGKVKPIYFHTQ
Chain of AR (P10275 whole entry T878A): as the sequence (P10275 whole entry) above, with T878A counted along it

SMILES	GI50 (LNCap cells; [2])	GI50 (T47D cells; [3])	pIC50 (IEC6 cells)	pIC50 [1]	GI50 (LNCap cells; [4])	IC50 (IEC6 cells)	other results
CCc1c2c(nc3ccc(OC(=O)N4CCN(CCCCCCN(C)c5ccc([C@H]6C[C@@]7(C)[C@@H](CC[C@]7(OC(C)=O)C(C)=O)[C@@H]7CCC8=CC(=O)CCC8=C76)cc5)CC4)cc13)-c1cc3c(c(=O)n1C2)COC(=O)[C@]3(O)CC [Compound 4, (S)-4,11-diethyl-4-hydroxy-3,14-dioxo-3,4,12,14-tetrahydro-1H-pyrano[3′,4′:6,7]indolizino[1,2-b]quinolin-9-yl 4-(6-((4-((8S,11R,13S,14S,17R)-17-acetoxy-17-acetyl-13-methyl-3-oxo-2,3,6,7,8,11,12,13,14,15,16,17-dodecahydro-1H-cyclopenta[a]phenanthren-11-yl)phenyl)(methyl)amino)hexyl)piperazine-1-carboxylate]	10 to 500 nM	10 to 500 nM	–	–	–	–	–
CC[C@@]1(O)C(=O)OCc2c1cc1n(c2=O)Cc2cc3c(CN(C)C)c(OCCCCCOc4ccc(C(=O)N[C@H]5CC[C@H](Oc6ccc(C#N)c(Cl)c6)CC5)cc4)ccc3nc2-1 [Compound 7, N-((1r,4r)-4-(3-Chloro-4-cyanophenoxy)cyclohexyl)-4-((5-(((S)-10-((dimethylamino)methyl)-4-ethyl-4-hydroxy-3,14-dioxo-3,4,12,14-tetrahydro-1H-pyrano[3′,4′:6,7]indolizino[1,2-b]quinolin-9-yl)oxy)pentyl)oxy)benzamide]	–	–	6.00 to 6.30	6.30 to 8.00	10 to 500 nM	–	pIC50 (AR; [5]): < 6.00; GI50 (22Rv1 cells; [6]): 10 to 500 nM
CC[C@@]1(O)C(=O)OCc2c1cc1n(c2=O)Cc2cc3c(CN(C)C)c(OC4CCN(CCCCCCN(C)c5ccc([C@H]6C[C@@]7(C)C(CC[C@]7(OC(C)=O)C(C)=O)C7CCC8=CC(=O)CCC8=C76)cc5)CC4)ccc3nc2-1 (stereo partly drawn) [Compound 9, (11R,13S,17R)-17-Acetyl-11-(4-((6-(4-(((S)-10-((dimethylamino)methyl)-4-ethyl-4-hydroxy-3,14-dioxo-3,4,12,14-tetrahydro-1H-pyrano[3′,4′:6,7]indolizino[1,2-b]quinolin-9-yl)oxy)piperidin-1-yl)hexyl)(methyl)amino)phenyl)-13-methyl-3-oxo-2,3,6,7,8,11,12,13,14,15,16,17-dodecahydro-1H-cyclopenta[a]phenanthren-17-yl acetate]	–	–	< 6.00	< 6.00	501 to 1000 nM	–	pIC50 (AR; [5]): 6.30 to 8.00; GI50 (T47D cells; T47D cells, 6 days, CellTiterGlo, read-out: T47D (GI50)): 10 to 500 nM
CC[C@@]1(O)C(=O)OCc2c1cc1n(c2=O)Cc2cc3c(CN(C)C)c(OC4CCN(CCCCCCCN(C)c5ccc([C@H]6C[C@@]7(C)C(CC[C@]7(OC(C)=O)C(C)=O)C7CCC8=CC(=O)CCC8=C76)cc5)CC4)ccc3nc2-1 (stereo partly drawn) [Compound 10, (11R,13S,17R)-17-Acetyl-11-(4-((7-(4-(((S)-10-((dimethylamino)methyl)-4-ethyl-4-hydroxy-3,14-dioxo-3,4,12,14-tetrahydro-1H-pyrano[3′,4′:6,7]indolizino[1,2-b]quinolin-9-yl)oxy)piperidin-1-yl)heptyl)(methyl)amino)phenyl)-13-methyl-3-oxo-2,3,6,7,8,11,12,13,14,15,16,17-dodecahydro-1H-cyclopenta[a]phenanthren-17-yl-acetate]	10 to 500 nM	10 to 500 nM	–	< 6.00	–	–	pIC50 (AR): 6.30 to 8.00
CC[C@@]1(O)C(=O)OCc2c1cc1n(c2=O)Cc2cc3c(CN(C)C)c(OC(=O)N4C5CCC4CN(CCCCCCN(C)c4ccc([C@H]6C[C@@]7(C)[C@@H](CC[C@]7(OC(C)=O)C(C)=O)[C@@H]7CCC8=CC(=O)CCC8=C76)cc4)C5)ccc3nc2-1 [Compound 22, (S)-10-((Dimethylamino)methyl)-4-ethyl-4-hydroxy-3,14-dioxo-3,4,12,14-tetrahydro-1H-pyrano[3′,4′:6,7]indolizino[1,2-b]quinolin-9-yl 3-(6-((4-((8S,11R,13S,14S,17R)-17-acetoxy-17-acetyl-13-methyl-3-oxo-2,3,6,7,8,11,12,13,14,15,16,17-dodecahydro-1H-cyclopenta[a]phenanthren-11-yl)phenyl)(methyl)amino)hexyl)-3,8-diazabicyclo[3.2.1]octane-8-carboxylate]	10 to 500 nM	10 to 500 nM	–	–	–	10 to 500 nM	–
CC[C@@]1(O)C(=O)OCc2c1cc1n(c2=O)Cc2cc3c(CN(C)C)c(OC(=O)N4C[C@@H](C)N(CCCCCCN(C)c5ccc([C@H]6C[C@@]7(C)[C@@H](CC[C@]7(OC(C)=O)C(C)=O)[C@@H]7CCC8=CC(=O)CCC8=C76)cc5)C[C@@H]4C)ccc3nc2-1 [Compound 23, (S)-10-((Dimethylamino)methyl)-4-ethyl-4-hydroxy-3,14-dioxo-3,4,12,14-tetrahydro-1H-pyrano[3′,4′:6,7]indolizino[1,2-b]quinolin-9-yl (2S,5R)-4-(6-((4-((8S,11R,13S,14S,17R)-17-acetoxy-17-acetyl-13-methyl-3-oxo-2,3,6,7,8,11,12,13,14,15,16,17-dodecahydro-1H-cyclopenta[a]phenanthren-11-yl)phenyl)(methyl)amino)hexyl)-2,5-dimethylpiperazine-1-carboxylate]	501 to 1000 nM	10 to 500 nM	–	–	–	10 to 500 nM	–
CC[C@@]1(O)C(=O)OCc2c1cc1n(c2=O)Cc2cc3c(CN(C)C)c(OC(=O)N4C[C@H](C)N(CCCCCCN(C)c5ccc([C@H]6C[C@@]7(C)[C@@H](CC[C@]7(OC(C)=O)C(C)=O)[C@@H]7CCC8=CC(=O)CCC8=C76)cc5)C[C@H]4C)ccc3nc2-1 [Compound 24, (S)-10-((Dimethylamino)methyl)-4-ethyl-4-hydroxy-3,14-dioxo-3,4,12,14-tetrahydro-1H-pyrano[3′,4′:6,7]indolizino[1,2-b]quinolin-9-yl (2R,5S)-4-(6-((4-((8S,11R,13S,14S,17R)-17-acetoxy-17-acetyl-13-methyl-3-oxo-2,3,6,7,8,11,12,13,14,15,16,17-dodecahydro-1H-cyclopenta[a]phenanthren-11-yl)phenyl)(methyl)amino)hexyl)-2,5-dimethylpiperazine-1-carboxylate]	10 to 500 nM	10 to 500 nM	–	–	–	501 to 1000 nM	–
CC[C@@]1(O)C(=O)OCc2c1cc1n(c2=O)Cc2cc3c(CN(C)C(=O)CO[C@H]4CC[C@H]5[C@@H]6CC[C@H]7CC(=O)CC[C@]7(C)[C@H]6CC[C@]45C)c(O)ccc3nc2-1 [Compound 25, 2-(((5S,8R,9S,10S,13S,14S,17S)-10,13-Dimethyl-3-oxohexadecahydro-1H-cyclopenta[a]phenanthren-17-yl)oxy)-N—(((S)-4-ethyl-4,9-dihydroxy-3,14-dioxo-3,4,12,14-tetrahydro-1H-pyrano[3′,4′:6,7]indolizino[1,2-b]quinolin-10-yl)methyl)-N-methylacetamide]	–	–	< 6.00	–	10 to 500 nM	–	GI50 (22Rv1 cells; [6]): 10 to 500 nM
CC[C@@]1(O)C(=O)OCc2c1cc1n(c2=O)Cc2cc3c(CN(C)C)c(OC(=O)N4CCN(C(=O)C5CCN(c6ccc(C(=O)N[C@H]7CC[C@H](Oc8ccc(C#N)c(Cl)c8)CC7)nn6)CC5)CC4)ccc3nc2-1 [Compound 26, (S)-10-((Dimethylamino)methyl)-4-ethyl-4-hydroxy-3,14-dioxo-3,4,12,14-tetrahydro-1H-pyrano[3′,4′:6,7]indolizino[1,2-b]quinolin-9-yl 4-(1-(6-(((1r,4r)-4-(3-chloro-4-cyanophenoxy)cyclohexyl)carbamoyl)pyridazin-3-yl)piperidine-4-carbonyl)piperazine-1-carboxylate]	10 to 500 nM	–	–	–	–	> 1000 nM	GI50 (22Rv1 cells; 22Rv1, 144 h, read-out: 22RV1 (GI50, nM)): 10 to 500 nM
